In US7235569B2, “Piperidinyl indole and tetrohydropyridinyl indole derivatives and method of their use” (Wyeth, priority 2003, dated 2007):
Where two headings read alike, the source gives them in different places.

Columns and labels:
human 5-HT1A receptors = biological target: T1, human 5-HT1A receptors (Homo sapiens, UniProt P08908); test: [3H] 8-OH-DPAT displacement from 5-HT1A receptor (CHO cells stably transfected); assay type: binding; conditions: for inhibition at 1 µM: read-out: 5-HT1A % inhibition at 1 μM, cells marked * in the 5-HT1A column
T1 construct: expressed in transfected cells
T1 sequence (P08908 1-422): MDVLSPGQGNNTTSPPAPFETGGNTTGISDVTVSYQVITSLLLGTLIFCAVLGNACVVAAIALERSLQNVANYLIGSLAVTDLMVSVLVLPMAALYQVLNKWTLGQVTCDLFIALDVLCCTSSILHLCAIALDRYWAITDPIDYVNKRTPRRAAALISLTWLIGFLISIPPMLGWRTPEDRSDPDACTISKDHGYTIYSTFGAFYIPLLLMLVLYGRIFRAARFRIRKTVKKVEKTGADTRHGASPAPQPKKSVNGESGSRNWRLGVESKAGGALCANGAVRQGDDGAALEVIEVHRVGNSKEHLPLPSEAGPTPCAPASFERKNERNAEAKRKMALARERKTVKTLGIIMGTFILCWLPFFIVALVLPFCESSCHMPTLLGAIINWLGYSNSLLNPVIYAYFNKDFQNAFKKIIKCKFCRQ

5-HT transporter = biological target: T2, 5-HT transporter (Rattus norvegicus, UniProt P31652); test: Rat Brain 3H-Paroxetine Binding Assay (RB 5HT Transporter)
T2 construct: frontal cortical membranes prepared from male S.D. rats; from tissue; host or cells: frontal cortical membranes of male Sprague-Dawley rats
T2 sequence (P31652 whole entry): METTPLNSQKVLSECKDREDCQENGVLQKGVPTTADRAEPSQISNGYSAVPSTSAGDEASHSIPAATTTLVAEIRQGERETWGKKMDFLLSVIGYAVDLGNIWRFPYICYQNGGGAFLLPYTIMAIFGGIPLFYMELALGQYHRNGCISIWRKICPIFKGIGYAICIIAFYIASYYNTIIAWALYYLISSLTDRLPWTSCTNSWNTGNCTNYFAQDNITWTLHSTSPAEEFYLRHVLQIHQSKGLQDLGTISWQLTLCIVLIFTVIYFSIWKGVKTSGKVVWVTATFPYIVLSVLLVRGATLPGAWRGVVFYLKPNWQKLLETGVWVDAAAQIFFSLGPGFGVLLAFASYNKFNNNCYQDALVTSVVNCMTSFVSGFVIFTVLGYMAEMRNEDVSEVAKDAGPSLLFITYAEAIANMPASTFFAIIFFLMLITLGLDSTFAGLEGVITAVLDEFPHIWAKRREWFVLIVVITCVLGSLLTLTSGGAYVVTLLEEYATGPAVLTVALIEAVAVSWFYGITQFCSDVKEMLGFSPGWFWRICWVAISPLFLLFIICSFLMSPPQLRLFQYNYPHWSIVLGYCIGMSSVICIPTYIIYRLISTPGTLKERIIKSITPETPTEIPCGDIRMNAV
Protocol: Rat Brain ^3H-Paroxetine Binding Assay (RB 5HT Transporter)
This assay was used to determine a compound's affinity of the 5-HT transporter. […] Briefly, frontal cortical membranes prepared from male S.D. rats were incubated with ^3H-parxetine (0.1 nM) for 60 min. at 25° C. All tubes also contained either vehicle, test compound (one to eight concentrations), or a saturating concentration of fluoxetine (10 μM) to define […]. All reactions are terminated by the addition of ice cold Tris buffer followed by rapid filtration using a Tom Tech filtration device to separate bound from free ^3H-paroxetine.

Human 5-HT Transporter = Human 5-HT Transporter (Homo sapiens, UniProt P31645); test: cell-based
Sequence of Human 5-HT Transporter (P31645 whole entry): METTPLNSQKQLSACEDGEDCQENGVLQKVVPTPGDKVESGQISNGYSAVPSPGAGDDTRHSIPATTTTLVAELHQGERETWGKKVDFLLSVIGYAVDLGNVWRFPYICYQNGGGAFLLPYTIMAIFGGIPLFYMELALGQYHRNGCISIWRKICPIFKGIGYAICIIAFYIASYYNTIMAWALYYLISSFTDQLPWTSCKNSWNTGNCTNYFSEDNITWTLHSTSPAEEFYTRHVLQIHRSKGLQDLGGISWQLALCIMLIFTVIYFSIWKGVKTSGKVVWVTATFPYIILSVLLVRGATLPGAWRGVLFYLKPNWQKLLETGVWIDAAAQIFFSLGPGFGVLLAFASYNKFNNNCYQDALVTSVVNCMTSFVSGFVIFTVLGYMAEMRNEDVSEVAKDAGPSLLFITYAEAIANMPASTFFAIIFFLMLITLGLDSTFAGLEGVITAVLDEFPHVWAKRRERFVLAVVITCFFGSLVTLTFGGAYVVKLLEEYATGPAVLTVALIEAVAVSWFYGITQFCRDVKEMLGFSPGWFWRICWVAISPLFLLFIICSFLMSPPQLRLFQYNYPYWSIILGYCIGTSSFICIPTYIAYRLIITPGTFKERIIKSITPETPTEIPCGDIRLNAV
Protocol: On the day of assay, vehicle, excess of fluoxetine, or test compound is added to various wells on the plate. All wells then receive ^3H-5-HT and are incubated at 37° C. for 5 min. The wells are then washed with ice cold 50 mM Tris HCl (pH 7.4) buffer and aspirated to remove free ^3H-5-HT. 25 μl of 0.25 M NaOH is then added to each well to lyse the cells and 75 μl scintillation cocktail (Microscint™ 20) added prior to quantitation on a Packard TopCount machine. Tubes with vehicle represent total possible uptake, radioactivity counted in tubes with fluoxetine represent nonspecific binding/uptake and is subtracted from the total possible uptake to give total possible specific uptake. […] Specific uptake is then expressed as a % of control values and is analyzed using nonlinear regression analysis (Prizm) to determine IC50 values.

[1] = rat frontal cortical membranes, 3H-paroxetine 0.1 nM, read-out: RB-5HT Transporter Ki

Row | SMILES | Ki (human 5-HT1A receptors) | Ki (5-HT transporter) | melting point | Ki (Human 5-HT Transporter) | Ki (human 5-HT1A receptors; [3H] 8-OH-DPAT displacement, CHO cells with human 5-HT1A, read-out: 5-HT1A Ki) | Ki (5-HT transporter; [1]) | inhibition at 1 µM (human 5-HT1A receptors)
1 | Cn1cc(C2=CCN(CCc3coc4ccccc34)CC2)c2ccccc21 [Compound 2, 3-{1-[2-(1-benzofuran-3-yl)ethyl]-1,2,3,6-tetrahydro-4-pyridinyl}-1-methyl-1H-indole] | 18.3 nM | 6 nM | – | – | – | – | –
2 | COc1ccc2c(CCN3CC=C(c4c[nH]c5cc(C#N)ccc45)CC3)coc2c1 [Compound 13, 3-{1-[2-(6-methoxy-1-benzofuran-3-yl)ethyl]-1,2,3,6-tetrahydro-4-pyridinyl}-6-cyano-1H-indole] | 12.7 nM | 3.36 nM | 181 °C | 34.1 nM | – | – | –
3 | C1=C(c2c[nH]c3ccccc23)CCN(CCc2csc3ccccc23)C1 [Compound 28, 3-{1-[2-(1-benzothiophene-3-yl)ethyl]-1,2,3,6-tetrahydro-4-pyridinyl}-1H-indole] | 67.9 nM | 6.25 nM | 195 to 198 °C | 11.1 nM | – | – | –
4 | C=CCn1cc(C2=CCN(CCc3csc4ccccc34)CC2)c2ccccc21 [Compound 29, 3-{1-[2-(1-benzothiophene-3-yl)ethyl]-1,2,3,6-tetrahydro-4-pyridinyl}-1-(2-propenyl)-1H-indole] | – | – | – | 1120 nM | 243 nM | 104 nM | –
5 | Cn1cc(C2=CCN(CCc3csc4ccccc34)CC2)c2ccccc21 [Compound 30, 3-{1-[2-(1-benzothiophene-3-yl)ethyl]-1,2,3,6-tetrahydro-4-pyridinyl}-1-methyl-1H-indole] | 53.1 nM | 13 nM | – | 421 nM | – | – | –
6 | Clc1ccc2scc(CCN3CC=C(c4c[nH]c5ccccc45)CC3)c2c1 [Compound 31, 3-{1-[2-(5-chloro-1-benzothiophene-3-yl)ethyl]-1,2,3,6-tetrahydro-4-pyridinyl}-1H-indole] | – | – | – | 2900 nM | – | 172 nM | 29%
7 | C=CCn1cc(C2=CCN(CCc3csc4ccc(Cl)cc34)CC2)c2ccccc21 [Compound 32, 3-{1-[2-(5-chloro-1-benzothiophene-3-yl)ethyl]-1,2,3,6-tetrahydro-4-pyridinyl}-1-(2-propenyl)-1H-indole] | – | – | – | – | – | 132 nM | 34%
8 | Cn1cc(C2=CCN(CCc3csc4ccc(Cl)cc34)CC2)c2ccccc21 [Compound 33, 3-{1-[2-(5-chloro-1-benzothiophene-3-yl)ethyl]-1,2,3,6-tetrahydro-4-pyridinyl}-1-methyl-1H-indole] | – | 39 nM | – | – | – | – | 45%
9 | c1ccc2c(c1)ccc1c(CCN3CCC(c4c[nH]c5ccccc45)CC3)coc12 [Compound 34, 3-{1-(2-Naphtho[1,2-b]furan-3-yl-ethyl)-piperidin-4-yl]-1H-indole] | – | – | – | 276 nM | – | 62 nM | 48%
10 | CC(CN1CC=C(c2c[nH]c3ccccc23)CC1)c1coc2ccccc12 (centres unmarked) [Compound 35, 3-{1-[2-(1-benzofuran-3-yl)propyl]-1,2,3,6-tetrahydro-4-pyridinyl}-1H-indole] | – | 16 nM | – | 130 nM | – | – | 28%
11 | CC(CN1CC=C(c2c[nH]c3cc(F)ccc23)CC1)c1coc2ccccc12 (centres unmarked) [Compound 36, 3-{1-[2-(1-benzofuran-3-yl)propyl]-1,2,3,6-tetrahydro-4-pyridinyl}-6-fluoro-1H-indole] | – | 4.43 nM | – | 42 nM | – | – | 11%
12 | CC(CN1CC=C(c2c[nH]c3ccc(F)cc23)CC1)c1coc2ccccc12 (centres unmarked) [Compound 37, 3-{1-[2-(1-benzofuran-3-yl)propyl]-1,2,3,6-tetrahydro-4-pyridinyl}-5-fluoro-1H-indole] | – | 21 nM | – | 152 nM | – | – | 20%
13 | COc1cccc2c(CC(C)N3CC=C(c4c[nH]c5ccccc45)CC3)coc12 (centres unmarked) [Compound 41, 3-{1-[2-(7-methoxy-1-benzofuran-3-yl)-1-methylethyl]-1,2,3,6-tetrahydro-4-pyridinyl}-1H-indole] | 11.5 nM | 8.93 nM | – | 68.8 nM | – | – | –
14 | COc1cccc2c(CC(C)N3CC=C(c4c[nH]c5cc(F)ccc45)CC3)coc12 (centres unmarked) [Compound 42, 3-{1-[2-(7-methoxy-1-benzofuran-3-yl)-1-methylethyl]-1,2,3,6-tetrahydro-4-pyridinyl}-6-fluoro-1H-indole] | 69.4 nM | 3.74 nM | – | 48.7 nM | – | – | –
15 | COc1ccc2occ(CC(C)N3CC=C(c4c[nH]c5ccccc45)CC3)c2c1 (centres unmarked) [Compound 43, 3-{1-[2-(5-methoxy-1-benzofuran-3-yl)-1-methylethyl]-1,2,3,6-tetrahydro-4-pyridinyl}-1H-indole] | – | 12 nM | – | 144 nM | – | – | 34%
16 | Clc1ccc2occ(CCN3CC=C(c4cnc5ccccn45)CC3)c2c1 [Compound 44, 3-{1-[2-(5-chloro-1-benzofuran-3-yl)ethyl]-1,2,3,6-tetrahydropyridin-4-yl}imidazo[1,2-a]pyridine] | – | 97 nM | – | 63.8 nM | – | – | 44%
